From patent US12516039B2, “N-linked isoquinoline amides as LRRK2 inhibitors, pharmaceutical compositions, and uses thereof” (Merck Sharp & Dohme LLC, priority 2020, dated 2026)

molecular target: T1, GST-tagged truncated human mutant G2019S LRRK2 (Homo sapiens, UniProt Q5S007, G2019S); experiment: LRRK2 G2019S Km ATP LanthaScreen assay; type: biochemical; settings: 134 μM ATP (Km ATP), LRRKtide substrate, mean of several tests
T1 construct: GST-tagged truncated human mutant G2019S LRRK2; purchased Life Technologies Corporation (Carlsbad, CA)
T1 sequence (Q5S007 970-2527 G2019S limits assumed): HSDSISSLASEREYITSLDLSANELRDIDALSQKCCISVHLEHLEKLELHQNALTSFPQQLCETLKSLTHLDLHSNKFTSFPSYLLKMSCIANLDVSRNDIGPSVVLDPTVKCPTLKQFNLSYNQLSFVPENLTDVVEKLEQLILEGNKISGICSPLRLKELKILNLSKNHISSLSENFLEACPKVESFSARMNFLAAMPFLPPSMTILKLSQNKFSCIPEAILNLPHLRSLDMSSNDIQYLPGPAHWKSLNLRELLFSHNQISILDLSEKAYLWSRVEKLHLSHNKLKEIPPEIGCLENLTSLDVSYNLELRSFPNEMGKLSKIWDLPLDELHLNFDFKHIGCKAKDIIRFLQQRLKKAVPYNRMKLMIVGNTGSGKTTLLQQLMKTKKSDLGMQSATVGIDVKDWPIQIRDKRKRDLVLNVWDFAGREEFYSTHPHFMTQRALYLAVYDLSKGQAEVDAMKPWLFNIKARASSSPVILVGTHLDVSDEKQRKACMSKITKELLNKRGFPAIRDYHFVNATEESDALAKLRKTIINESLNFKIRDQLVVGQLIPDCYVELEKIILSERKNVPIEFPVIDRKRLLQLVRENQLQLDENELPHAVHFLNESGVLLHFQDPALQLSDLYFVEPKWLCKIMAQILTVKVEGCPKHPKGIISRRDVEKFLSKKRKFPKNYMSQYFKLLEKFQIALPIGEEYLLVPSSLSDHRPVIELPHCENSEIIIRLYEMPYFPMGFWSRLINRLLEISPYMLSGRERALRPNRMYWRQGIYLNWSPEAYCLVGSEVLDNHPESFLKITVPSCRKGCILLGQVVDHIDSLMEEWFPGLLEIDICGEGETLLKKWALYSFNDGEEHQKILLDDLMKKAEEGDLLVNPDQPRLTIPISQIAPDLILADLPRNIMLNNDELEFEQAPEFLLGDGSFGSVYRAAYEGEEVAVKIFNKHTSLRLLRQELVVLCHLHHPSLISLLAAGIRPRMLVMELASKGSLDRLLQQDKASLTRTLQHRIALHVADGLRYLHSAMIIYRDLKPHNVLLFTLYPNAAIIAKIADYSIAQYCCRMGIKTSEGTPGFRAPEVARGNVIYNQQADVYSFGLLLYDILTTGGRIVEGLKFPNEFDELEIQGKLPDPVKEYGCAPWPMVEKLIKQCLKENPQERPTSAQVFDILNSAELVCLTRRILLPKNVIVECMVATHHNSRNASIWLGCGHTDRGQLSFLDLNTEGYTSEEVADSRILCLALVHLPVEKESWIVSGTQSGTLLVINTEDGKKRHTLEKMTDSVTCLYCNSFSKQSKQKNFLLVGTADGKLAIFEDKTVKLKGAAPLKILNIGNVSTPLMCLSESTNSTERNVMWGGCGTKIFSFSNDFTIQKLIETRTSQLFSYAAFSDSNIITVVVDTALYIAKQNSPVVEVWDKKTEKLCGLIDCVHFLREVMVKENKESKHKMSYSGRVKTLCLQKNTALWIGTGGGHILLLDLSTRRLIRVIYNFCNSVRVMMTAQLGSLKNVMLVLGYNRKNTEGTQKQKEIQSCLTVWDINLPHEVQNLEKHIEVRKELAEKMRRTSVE
Summary of the method: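 GST-tagged truncated human LRRK2 G2019S (1.25 nM enzyme solution) was preincubated 15 min with compound, then reacted 90 min at ambient temperature with fluorescein-LRRKtide (400 nM solution) and 134 μM ATP (Km) in Tris pH 8.5. EDTA stop; Tb anti-phospho-LRRKtide TR-FRET (520/495 ratio). IC50 from 4-parameter fits, mean of several runs.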

**Q.** How did the “LRRK2 pIC50” value turn out when `CC(C)C1CC(C(=O)Nc2cc3cc(N4CCN(C5(C)COCC5O)CC4)c(Cl)cc3cn2)C1` (centres unmarked) [Ex-9.3] was run?
**A.** The value was 8.58.

**Q.** `CC1(N2CCN(c3cc4cc(NC(=O)C5CCOCC5)ncc4cc3Cl)CC2)COCC1O` (centres unmarked) [Ex-9.2] was tested. Which “LRRK2 pIC50” value did it give?
**A.** Its value is 8.74.

**Q.** How did the “LRRK2 pIC50” value turn out when “(1R,2R,3R, or 1R,2S,3R, or 1S,2R,3S, or 1S,2S,3S)-N-[7-chloro-6-[4-((3R,4R or 3S,4S)-4-fluoro-3-methyl-tetrahydrofuran-3-yl)piperazin-4-ium-1-yl]-3-isoquinolyl]-2-methyl-3-(2-pyridyl)cyclopropanecarboxamide [Ex-10.71]” was run?
**A.** The value was 7.72.

**Q.** How did the “LRRK2 pIC50” value turn out when `O=C(Nc1cc2cc(N3CCc4[nH]ncc4C3)c(Cl)cc2cn1)C1CC1` [Ex-4.3] was run?
**A.** Its value is 7.85.

**Q.** With `CCC1(N2CCN(c3cc4cc(NC(=O)C5CC56CCOCC6)ncc4cc3C)CC2)COCC1O` (centres unmarked) [Ex-6.12] as the compound, how does the “LRRK2 pIC50” value read?
**A.** The value was 9.67.

**Q.** For “(1R,2R,3R, or 1R,2S,3R, or 1S,2R,3S, or 1S,2S,3S)-N-[6-[4-((3R,4R or 3S,4S)-4-fluoro-3-methyl-tetrahydrofuran-3-yl)piperazin-1-yl]-7-methyl-3-isoquinolyl]-2-methyl-3-(1-methylpyrazol-4-yl)cyclopropanecarboxamide [Ex-10.58]”, which “LRRK2 pIC50” value is on record?
**A.** Its value is 10.09.

same assay, conditions: 134 μM ATP (Km ATP), LRRKtide substrate, mean of several tests, read-out: LRRK2 pIC50 (converted)

**Q.** How did the IC50 turn out when `Cc1cc2cnc(NC(=O)C3CC34CCOC4)cc2cc1N1CCN(C2(C)COCC2O)CC1` (single isomer, unassigned) [Ex-6.4, (1R, 3S or 1S,3R, or 1R,3S, or 1S,3S)-N-(6-(4-((3R, 4R or 3S,4S)-4-hydroxy-3-methyltetrahydrofuran-3-yl)piperazin-1-yl)-7-methylisoquinolin-3-yl)-5-oxaspiro[2.4]heptane-1-carboxamide] was run?
**A.** Its IC50 is 1.07 nM.

**Q.** `COC1CC(C(=O)Nc2cc3cc(N4CCN(C5(C)COCC5O)CC4)c(Cl)cc3cn2)C1` (single isomer, unassigned) [Ex-7.1] was tested. Which IC50 did it give?
**A.** Its IC50 is 0.832 nM.

**Q.** `C[C@H]1CN(C2(C)COCC2O)CCN1c1cc2cc(NC(=O)C3CC34CCOCC4)ncc2cc1Cl` (single isomer, unassigned) [Ex-14.2, N-(7-chloro-6-((2R or 2S)-4-(4-(3R,4R or 3S,4S)-hydroxy-3-methyltetrahydrofuran-3-yl)-2-methylpiperazin-1-yl)isoquinolin-3-yl)-6-oxaspiro[2.5]octane-1-carboxamide] was tested. Which IC50 did it give?
**A.** Its IC50 is 0.0813 nM.

**Q.** `CC1(N2CCN(c3cc4cc(NC(=O)C5CC56CCC6)ncc4cc3Cl)CC2)COCC1O` (single isomer, unassigned) [Ex-1.8, (1R or 1S)-N-(7-chloro-6-(4-((3R,4R or 3S,4S)-4-hydroxy-3-methyltetrahydrofuran-3-yl)piperazin-1-yl)isoquinolin-3-yl)spiro[2.3]hexane-1-carboxamide] was tested. Which IC50 did it give?
**A.** Its IC50 is 2.34 nM.

**Q.** Which IC50 does the source give for `Cn1ncc(C2CC2C(=O)Nc2cc3cc(N4CCN(C5(C)CCOC5)CC4)c(Cl)cc3cn2)c1C(F)(F)F` (single isomer, unassigned) [Ex-10.26, (1R,2R or 1S,2S)-N-[7-chloro-6-[4-((R or S)-3-methyltetrahydrofuran-3-yl)piperazin-4-ium-1-yl]-3-isoquinolyl]-2-[1-methyl-5-(trifluoromethyl)pyrazol-4-yl]cyclopropanecarboxamide] here?
**A.** Its IC50 is 525 nM.

**Q.** How did the IC50 turn out when `CC1(N2CCN(c3cc4cc(NC(=O)C5CC56CC6)ncc4cc3Cl)CC2)COCC1O` (single isomer, unassigned) [Ex-2.14, (R or S)-N-(7-chloro-6-(4-((3R,4R or 3S,4S)-4-hydroxy-3-methyltetrahydrofuran-3-yl)piperazin-1-yl)isoquinolin-3-yl)spiro[2.2]pentane-1-carboxamide] was run?
**A.** Its IC50 is 0.468 nM.

**Q.** How did the IC50 turn out when `Cc1cc2cnc(NC(=O)C3C(C)C3c3cnn(C)c3)cc2cc1N1CCN(C2(C)CCOC2)CC1` (single isomer, unassigned) [Ex-9.13] was run?
**A.** The IC50 was 11.5 nM.

**Q.** Which IC50 does the source give for `CC1(N2CCN(c3cc4cc(NC(=O)C5CCC5C#N)ncc4cc3Cl)CC2)COCC1F` (single isomer, unassigned) [Ex-10.68, (1R,2R or 1S,2S)-N-[7-chloro-6-[4-((3R,4R or 3S,4S)-4-fluoro-3-methyl-tetrahydrofuran-3-yl)piperazin-1-yl]-3-isoquinolyl]-2-cyano-cyclobutanecarboxamide] here?
**A.** Its IC50 is 0.0813 nM.

**Q.** `CCC1C(C(=O)Nc2cc3cc(N4CCN(C5(C)CCOC5)CC4)c(Cl)cc3cn2)C1c1cnn(C)c1` (single isomer, unassigned) [Ex-9.10] was tested. Which IC50 did it give?
**A.** Its IC50 is 0.0813 nM.

**Q.** `CC1(N2CCN(c3cc4cc(NC(=O)C5CC56CCOC6)ncc4cc3Cl)CC2)COCC1O` (single isomer, unassigned) [Ex-2.11, (1R,3R or 1S,3S)-N-(7-chloro-6-(4-((3R,4R or 3S,4S)-4-hydroxy-3-methyltetrahydrofuran-3-yl)piperazin-1-yl)isoquinolin-3-yl)-5-oxaspiro[2.4]heptane-1-carboxamide] was tested. Which IC50 did it give?
**A.** Its IC50 is 1.45 nM.

**Q.** `CCC1C(C(=O)Nc2cc3cc(N4CCN(C5(C)CCOC5)CC4)c(C)cc3cn2)C1c1cnn(C)c1` (single isomer, unassigned) [Ex-10.38, (1R,2R,3R, 1R,2S,3R, 1S,2R,3S, or 1S,2S,3S)-2-ethyl-N-[7-methyl-6-[4-((R or S)-3-methyltetrahydrofuran-3-yl)piperazin-4-ium-1-yl]-3-isoquinolyl]-3-(1-methylpyrazol-4-yl)cyclopropanecarboxamide] was tested. Which IC50 did it give?
**A.** The IC50 was 0.759 nM.

**Q.** How did the IC50 turn out when `CC1C(C(=O)Nc2cc3cc(N4CCN(C5(C)COCC5F)CC4)c(Cl)cc3cn2)C1c1ccn(C)n1` (single isomer, unassigned) [Ex-10.15] was run?
**A.** The IC50 was 1.17 nM.

**Q.** Which IC50 does the source give for `CC1(C)OCCC1C(=O)Nc1cc2cc(N3CCN(C4(C)COCC4O)CC3)c(Cl)cc2cn1` (single isomer, unassigned) [Ex-1.24, (R or S)-N-(7-chloro-6-(1-((3R,4R or 3S,4S)-4-hydroxy-3-methyltetrahydrofuran-3-yl)piperazin-4-yl)isoquinolin-3-yl)-2,2-dimethyltetrahydrofuran-3-carboxamide] here?
**A.** Its IC50 is 69.2 nM.

**Q.** For `CCOC1CC2(C1)CC2C(=O)Nc1cc2cc(N3CCN(C4(C)COCC4F)CC3)c(Cl)cc2cn1` (single isomer, unassigned) [Ex-10.23, (1R,2R or 1S,2S)-N-[7-chloro-6-[4-((3R,4R or 3S,4S)-4-fluoro-3-methyl-tetrahydrofuran-3-yl)piperazin-1-yl]-3-isoquinolyl]-5-ethoxy-spiro[2.3]hexane-2-carboxamide], which IC50 is on record?
**A.** Its IC50 is 0.724 nM.

**Q.** `CC1(N2CCN(c3cc4cc(NC(=O)C5CC56CCCOC6)ncc4cc3Cl)CC2)COCC1O` (single isomer, unassigned) [Ex-1.14, (1R,3S, or 1R,3R, or 1S,3S, or 1S,3R)-N-(7-chloro-6-(4-((3R,4R or 3S,4S)-4-hydroxy-3-methyltetrahydrofuran-3-yl)piperazin-1-yl)isoquinolin-3-yl)-5-oxaspiro[2.5]octane-1-carboxamide] was tested. Which IC50 did it give?
**A.** The IC50 was 0.603 nM.

**Q.** How did the IC50 turn out when `CC1C(C(=O)Nc2cc3cc(N4CCN(C5(C)COCC5O)CC4)c(Cl)cc3cn2)C1c1ccn(C)n1` (single isomer, unassigned) [Ex-10.53, (1R,2R,3R, 1R,2S,3R, or 1S,2R,3S, or 1S,2S,3S)-N-[7-chloro-6-[4-((3R,4R or 3S,4S)-4-hydroxy-3-methyl-tetrahydrofuran-3-yl)piperazin-1-yl]-3-isoquinolyl]-2-methyl-3-(1-methylpyrazol-3-yl)cyclopropanecarboxamide] was run?
**A.** Its IC50 is 0.0813 nM.

**Q.** `COC1CC(C(=O)Nc2cc3cc(N4CCN(C5(C)COCC5O)CC4)c(Cl)cc3cn2)C1` (single isomer, unassigned) [Ex-7.2] was tested. Which IC50 did it give?
**A.** The IC50 was 0.977 nM.

**Q.** With `Cn1ncc(C2CC2C(=O)Nc2cc3cc(N4CCN(C5(C)COCC5F)CC4)c(Cl)cc3cn2)c1C(F)(F)F` (single isomer, unassigned) [Ex-10.62, (1R,2R or 1S,2S)-N-[7-chloro-6-[4-((3R,4R or 3S,4S)-4-fluoro-3-methyl-tetrahydrofuran-3-yl)piperazin-4-ium-1-yl]-3-isoquinolyl]-2-[1-methyl-5-(trifluoromethyl)pyrazol-4-yl]cyclopropanecarboxamide] as the compound, how does the IC50 read?
**A.** The IC50 was 0.0813 nM.

**Q.** With `Cc1cc2cnc(NC(=O)C3CC3c3ccccn3)cc2cc1N1CCN(C2(C)CCOC2)CC1` (single isomer, unassigned) [Ex-9.16] as the compound, how does the IC50 read?
**A.** The IC50 was 1.12 nM.

**Q.** For `C[C@H]1CN(c2cc3cc(NC(=O)C4CC45CCOCC5)ncc3cc2Cl)CCN1C1COCC1O` (single isomer, unassigned) [Ex-2.3, (R or S)-N-{7-chloro-6-[(3S or 3R)-4-(3R,4R or 3S,4S)-4-hydroxyoxolan-3-yl)-3-methylpiperazin-1-yl]isoquinolin-3-yl}-6-oxaspiro[2.5]octane-1-carboxamide], which IC50 is on record?
**A.** Its IC50 is 17.4 nM.

**Q.** For `O=C(Nc1cc2cc(N3CCN(C4COCC4O)CC3)c(Cl)cc2cn1)C1CC12CCOCC2` (single isomer, unassigned) [Ex-2.6, (R or S)-N-(7-chloro-6-(4-((3R,4R or 3S,4S)-4-hydroxytetrahydrofuran-3-yl)piperazin-1-yl)isoquinolin-3-yl)-6-oxaspiro[2.5]octane-1-carboxamide], which IC50 is on record?
**A.** The IC50 was 3.09 nM.

**Q.** Which IC50 does the source give for `CC1(N2CCN(c3cc4cc(NC(=O)C5CC56CC6(F)F)ncc4cc3Cl)CC2)COCC1O` (single isomer, unassigned) [Ex-2.16, (1R,3R or 1S,3S)-N-(7-chloro-6-(4-((3R,4R or 3S,4S)-4-hydroxy-3-methyltetrahydrofuran-3-yl)piperazin-1-yl)isoquinolin-3-yl)-4,4-difluorospiro[2.2]pentane-1-carboxamide] here?
**A.** Its IC50 is 0.813 nM.

**Q.** For `Cc1cc2cnc(NC(=O)C3C4CCOCC43)cc2cc1N1CCN(C2(C)CCOC2)CC1` (single isomer, unassigned) [Ex-10.46, (1S,6R,7R, 1R,6S,7R, or 1R, 6S,7S, or 1S,6S,7S)-N-(7-methyl-6-(4-((R or S)-3-methyltetrahydrofuran-3-yl)piperazin-1-yl)isoquinolin-3-yl)-3-oxabicyclo[4.1.0]heptane-7-carboxamide], which IC50 is on record?
**A.** Its IC50 is 0.457 nM.
